Common to all, as to format: biochemical
For one assay, the target named is YES1 (Homo sapiens, UniProt P07947). In words: Kinase profiling.
In the next assay the target is BTK (Homo sapiens, UniProt Q06187). Nature of the assay: Kinase assay, IC50 curve. Also noted: BTK (amino acids 2–659); His6 (N); made in house; host or cells: Sf9 insect cells. Conditions: read-out: IC50 against BTK.
Another assay deals with EPH-B4 (Homo sapiens, UniProt P54760). Nature of the assay: Kinase profiling.
For a further assay, the target named is T1, SIK3 (Homo sapiens, UniProt Q9Y2K2).
T1 construct: GST; made in house; host or cells: HEK293 cells
In words: Kinase assay, IC50 curve. Conditions: read-out: IC50 against SIK3.

The target in the next assay is BRK (Homo sapiens, UniProt Q13882). In words: Kinase profiling.
BRK, sequence (Q13882 whole entry): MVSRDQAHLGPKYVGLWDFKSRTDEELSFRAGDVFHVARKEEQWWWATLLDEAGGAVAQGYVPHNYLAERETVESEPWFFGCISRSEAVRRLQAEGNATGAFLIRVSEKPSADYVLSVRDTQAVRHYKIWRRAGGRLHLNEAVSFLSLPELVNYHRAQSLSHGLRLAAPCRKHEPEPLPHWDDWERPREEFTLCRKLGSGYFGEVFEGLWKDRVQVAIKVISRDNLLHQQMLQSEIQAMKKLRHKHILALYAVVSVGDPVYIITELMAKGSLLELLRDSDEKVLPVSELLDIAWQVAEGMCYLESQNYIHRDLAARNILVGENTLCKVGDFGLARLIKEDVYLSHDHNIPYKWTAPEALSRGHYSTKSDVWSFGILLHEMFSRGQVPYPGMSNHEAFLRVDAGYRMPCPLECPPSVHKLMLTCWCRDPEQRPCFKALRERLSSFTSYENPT

YES1, sequence (P07947 whole entry, the tested form may be a part): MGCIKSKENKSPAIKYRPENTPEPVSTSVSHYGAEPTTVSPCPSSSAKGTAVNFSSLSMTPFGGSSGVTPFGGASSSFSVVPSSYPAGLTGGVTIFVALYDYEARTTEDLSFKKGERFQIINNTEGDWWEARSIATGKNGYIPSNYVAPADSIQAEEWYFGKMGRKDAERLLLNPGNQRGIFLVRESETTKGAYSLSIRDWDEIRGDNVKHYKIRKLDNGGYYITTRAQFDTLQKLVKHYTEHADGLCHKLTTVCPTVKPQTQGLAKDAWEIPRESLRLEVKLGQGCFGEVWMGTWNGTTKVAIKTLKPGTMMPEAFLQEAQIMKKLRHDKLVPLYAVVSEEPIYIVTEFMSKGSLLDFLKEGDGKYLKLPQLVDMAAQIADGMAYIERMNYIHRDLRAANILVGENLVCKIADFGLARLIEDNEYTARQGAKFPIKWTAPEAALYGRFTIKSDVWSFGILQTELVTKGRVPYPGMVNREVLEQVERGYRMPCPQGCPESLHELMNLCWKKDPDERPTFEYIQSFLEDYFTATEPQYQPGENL
EPH-B4, sequence (P54760 16-987): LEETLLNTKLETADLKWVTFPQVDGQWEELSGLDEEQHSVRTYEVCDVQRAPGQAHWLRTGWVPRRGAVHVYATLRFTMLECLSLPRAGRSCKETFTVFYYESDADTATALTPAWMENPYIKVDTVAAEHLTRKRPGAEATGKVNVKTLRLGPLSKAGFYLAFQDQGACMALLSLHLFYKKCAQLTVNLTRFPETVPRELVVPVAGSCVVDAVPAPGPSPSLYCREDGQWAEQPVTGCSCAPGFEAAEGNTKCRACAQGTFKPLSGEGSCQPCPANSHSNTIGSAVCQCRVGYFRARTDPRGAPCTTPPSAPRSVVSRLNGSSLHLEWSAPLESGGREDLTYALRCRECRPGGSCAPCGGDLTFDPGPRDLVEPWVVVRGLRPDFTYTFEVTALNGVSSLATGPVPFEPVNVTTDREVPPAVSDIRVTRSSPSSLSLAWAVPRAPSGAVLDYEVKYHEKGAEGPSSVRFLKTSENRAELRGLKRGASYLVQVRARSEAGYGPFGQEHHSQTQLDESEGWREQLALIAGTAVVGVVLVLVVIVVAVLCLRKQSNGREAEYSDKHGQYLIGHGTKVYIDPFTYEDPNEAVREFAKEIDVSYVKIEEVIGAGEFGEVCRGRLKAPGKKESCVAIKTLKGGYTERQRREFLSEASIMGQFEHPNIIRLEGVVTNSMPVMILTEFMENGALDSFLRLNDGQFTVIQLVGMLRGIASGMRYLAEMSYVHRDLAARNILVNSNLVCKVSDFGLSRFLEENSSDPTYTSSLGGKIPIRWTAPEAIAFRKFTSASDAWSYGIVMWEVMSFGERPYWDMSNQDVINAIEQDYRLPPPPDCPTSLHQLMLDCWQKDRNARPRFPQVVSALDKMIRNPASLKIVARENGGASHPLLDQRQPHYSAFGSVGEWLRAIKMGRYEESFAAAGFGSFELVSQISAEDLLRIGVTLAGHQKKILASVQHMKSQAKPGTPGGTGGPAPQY
T1 sequence (Q9Y2K2 whole entry, species assumed): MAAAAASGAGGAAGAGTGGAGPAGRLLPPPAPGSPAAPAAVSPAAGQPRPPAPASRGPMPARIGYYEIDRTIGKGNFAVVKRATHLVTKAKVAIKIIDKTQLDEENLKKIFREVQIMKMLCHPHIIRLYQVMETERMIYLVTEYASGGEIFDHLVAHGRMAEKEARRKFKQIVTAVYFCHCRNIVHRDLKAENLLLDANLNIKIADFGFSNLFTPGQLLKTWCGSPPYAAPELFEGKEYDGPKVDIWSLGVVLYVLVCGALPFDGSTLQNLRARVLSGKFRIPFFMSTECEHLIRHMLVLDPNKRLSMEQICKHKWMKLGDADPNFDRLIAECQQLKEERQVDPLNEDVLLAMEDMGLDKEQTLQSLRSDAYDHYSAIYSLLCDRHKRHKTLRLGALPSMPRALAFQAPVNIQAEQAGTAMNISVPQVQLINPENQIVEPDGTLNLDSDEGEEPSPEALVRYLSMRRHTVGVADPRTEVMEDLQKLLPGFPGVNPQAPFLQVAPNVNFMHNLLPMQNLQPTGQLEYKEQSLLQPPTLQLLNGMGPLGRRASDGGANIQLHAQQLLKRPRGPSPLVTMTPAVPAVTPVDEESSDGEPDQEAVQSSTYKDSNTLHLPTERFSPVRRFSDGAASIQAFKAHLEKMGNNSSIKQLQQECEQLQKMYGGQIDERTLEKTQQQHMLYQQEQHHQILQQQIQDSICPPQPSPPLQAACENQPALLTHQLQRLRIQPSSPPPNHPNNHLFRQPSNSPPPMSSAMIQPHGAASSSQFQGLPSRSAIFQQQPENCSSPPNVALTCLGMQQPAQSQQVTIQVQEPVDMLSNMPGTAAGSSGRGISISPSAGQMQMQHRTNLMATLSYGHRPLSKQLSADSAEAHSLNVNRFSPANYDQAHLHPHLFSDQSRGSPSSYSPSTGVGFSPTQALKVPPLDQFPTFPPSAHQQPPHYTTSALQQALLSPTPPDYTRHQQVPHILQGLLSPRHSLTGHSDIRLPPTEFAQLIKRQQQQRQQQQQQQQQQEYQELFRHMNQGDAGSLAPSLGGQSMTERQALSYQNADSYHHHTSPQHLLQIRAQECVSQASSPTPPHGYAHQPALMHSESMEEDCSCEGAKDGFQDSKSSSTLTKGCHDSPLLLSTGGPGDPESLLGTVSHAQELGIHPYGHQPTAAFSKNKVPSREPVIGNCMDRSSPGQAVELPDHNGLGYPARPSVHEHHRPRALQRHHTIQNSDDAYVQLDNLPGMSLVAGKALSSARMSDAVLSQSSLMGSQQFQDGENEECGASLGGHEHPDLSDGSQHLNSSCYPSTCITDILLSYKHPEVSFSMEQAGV
BTK, sequence (Q06187 2-659, species assumed): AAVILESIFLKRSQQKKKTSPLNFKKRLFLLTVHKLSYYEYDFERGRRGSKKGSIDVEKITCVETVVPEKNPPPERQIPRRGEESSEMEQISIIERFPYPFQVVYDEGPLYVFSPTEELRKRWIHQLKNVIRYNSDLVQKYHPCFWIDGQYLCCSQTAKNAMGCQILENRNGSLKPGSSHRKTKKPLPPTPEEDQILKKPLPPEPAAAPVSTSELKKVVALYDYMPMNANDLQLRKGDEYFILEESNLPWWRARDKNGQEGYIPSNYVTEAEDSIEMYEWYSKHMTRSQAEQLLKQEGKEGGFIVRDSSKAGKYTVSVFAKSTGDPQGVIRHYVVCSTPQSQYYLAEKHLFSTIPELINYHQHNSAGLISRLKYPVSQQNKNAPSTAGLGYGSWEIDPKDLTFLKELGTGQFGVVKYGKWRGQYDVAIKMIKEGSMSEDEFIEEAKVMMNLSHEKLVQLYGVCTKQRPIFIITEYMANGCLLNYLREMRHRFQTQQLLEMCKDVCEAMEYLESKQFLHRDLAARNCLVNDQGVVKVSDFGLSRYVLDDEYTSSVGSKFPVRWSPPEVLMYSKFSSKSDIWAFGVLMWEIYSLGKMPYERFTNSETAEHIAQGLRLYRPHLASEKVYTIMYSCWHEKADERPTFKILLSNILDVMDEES

With `COc1cc(Nc2c(C#N)cnc3cc(OCCCN4CCN(C)CC4)c(OC)cc23)c(Cl)cc1Cl` [Bosutinib, bosutinib], the values for the remaining activity at 0.1 µM at YES1 (0.1 µM), on EPH-B4 (0.1 µM) and on BRK (0.1 µM) were 2 ± 1%, 10% and 88 ± 11%, respectively. The remaining activity at 1 µM on YES1 (1 µM) turned out to be 1%; at EPH-B4 (1 µM), 2%; at BRK (1 µM) it was 48%. Moreover, the IC50 at BTK is 15 nM; at SIK3, 18 nM.

Values taken from PMC4286194 (Biochemical Journal, 2015).
